The test system of the experiment is 361931-004-R-J1-PDC multicell spheroid viability. Briefly: Anticancer human tumor 361931-004-R-J1-PDC patient-derived colon adenocarcinoma cell line growth inhibition [PI3K]. Conditions: for viability, T/C: stronger effect = lower value. The procedure, abridged: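 Agents were dosed from a top concentration near clinical Cmax (otherwise 10 microM) in half-log decrements, alone or combined with PI3K inhibitors. The spheroids contain tumor cells plus endothelial (HUVEC) and MSC stroma; viability is measured.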

Each structure is given as a SMILES string.
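Note: spheroids exposed to agents for seven days before readout.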

Broadly, the IC50 is the concentration at which inhibition is half-maximal. The term viability, T/C denotes the result in the treated group divided by that in the control group, in per cent. For `Cn1cnc2c(F)c(Nc3ccc(Br)cc3Cl)c(C(=O)NOCCO)cc21` + Cc1nc(NC(=O)N2CCCC2C(N)=O)sc1-c1ccnc(C(C)(C)C(F)(F)F)c1, the IC50 (curve of first compound, second compound 0.0316 µM) is > 3000 nM; the IC50 (curve of first compound, second compound 0.1 µM) came out at 2120 nM; the IC50 (curve of first compound, second compound 0.316 µM) amounted to 1170 nM; the IC50 (curve of first compound, second compound 1 µM) was found to be 741 nM; the IC50 (curve of first compound, second compound 3.16 µM) was determined as 204 nM; the half-inhibitory concentration (IC50) (curve of first compound, second compound 10 µM) worked out at 30.9 nM. Also, the viability, T/C was 96.2% (second compound 0.0316 µM, first compound 0.00949 µM); 95.8% (second compound 0.0316 µM, first compound 0.03 µM); 82.2% (second compound 0.0316 µM, first compound 0.0949 µM); 78.8% (second compound 0.0316 µM, first compound 0.3 µM); 75.8% (second compound 0.0316 µM, first compound 0.949 µM); 48.3% (second compound 0.0316 µM, first compound 3 µM). Besides, the viability, T/C (second compound 0.1 µM, first compound 0.00949 µM) is 107%; the viability, T/C (second compound 0.1 µM, first compound 0.03 µM) is 106%; the viability, T/C (second compound 0.1 µM, first compound 0.0949 µM) was 83.7%; the viability, T/C (second compound 0.1 µM, first compound 0.3 µM) is 84.5%; the viability, T/C (second compound 0.1 µM, first compound 0.949 µM) was 70.4%; the viability, T/C (second compound 0.1 µM, first compound 3 µM) is 41%. Further, the viability, T/C reads like this: (second compound 0.316 µM, first compound 0.00949 µM) 103%; (second compound 0.316 µM, first compound 0.03 µM) 89.5%; (second compound 0.316 µM, first compound 0.0949 µM) 79.2%; (second compound 0.316 µM, first compound 0.3 µM) 74%; (second compound 0.316 µM, first compound 0.949 µM) 57.1%; (second compound 0.316 µM, first compound 3 µM) 29.7%. The viability, T/C (second compound 1 µM, first compound 0.00949 µM) was 95.9%; the viability, T/C (second compound 1 µM, first compound 0.03 µM) was 92.7%; the viability, T/C (second compound 1 µM, first compound 0.0949 µM) was 75.6%; the viability, T/C (second compound 1 µM, first compound 0.3 µM) is 68%; the viability, T/C (second compound 1 µM, first compound 0.949 µM) is 44.4%; the viability, T/C (second compound 1 µM, first compound 3 µM) was 27.5%. Moreover, the viability, T/C is, setting by setting: (second compound 3.16 µM, first compound 0.00949 µM) 82.7%; (second compound 3.16 µM, first compound 0.03 µM) 77.6%; (second compound 3.16 µM, first compound 0.0949 µM) 61.9%; (second compound 3.16 µM, first compound 0.3 µM) 40%; (second compound 3.16 µM, first compound 0.949 µM) 29.3%; (second compound 3.16 µM, first compound 3 µM) 6.45%. In addition, the viability, T/C is 59% (second compound 10 µM, first compound 0.00949 µM); 48.4% (second compound 10 µM, first compound 0.03 µM); 35% (second compound 10 µM, first compound 0.0949 µM); 12.5% (second compound 10 µM, first compound 0.3 µM); 4.2% (second compound 10 µM, first compound 0.949 µM); 1.47% (second compound 10 µM, first compound 3 µM).
As for `C#Cc1c(F)ccc2cc(O)cc(-c3ncc4c(N5CC6CCC(C5)N6)nc(OCC56CCCN5CC(F)C6)nc4c3F)c12` (stereo not drawn), the viability, T/C was 104% [middle of 4 runs] (compound 0.0316 µM); 106% [middle of 4 runs] (compound 0.1 µM); 100% [middle of 4 runs] (compound 0.316 µM); 104% [middle of 4 runs] (compound 1 µM); 96.7% [middle of 4 runs] (compound 3.16 µM). Besides, the IC50 (curve of compound) was > 10000 nM.

The values are drawn from PubChem BioAssay AID1963979 (Molecular Pharmacology Branch, DTP, NCI, 2024).
